Our source for the IC50 values is PubChem BioAssay AID553 (University of Pittsburgh Molecular Library Screening Center, 2006).

The source made the active and inactive calls. No rule for the calls is given here.

The target of this assay is Dual specificity protein phosphatase 6 (Rattus norvegicus) (UniProt Q64346). The assay can be described thus: rat DUSP6 enzyme activity inhibition – biochemical, in vitro, hit/probe assessment, dose response (AID 553). Particulars: recombinant MKP-3 phosphatase, fluorescence intensity.
Dual specificity protein phosphatase 6 (Rattus norvegicus), sequence (Q64346 whole entry, looked up): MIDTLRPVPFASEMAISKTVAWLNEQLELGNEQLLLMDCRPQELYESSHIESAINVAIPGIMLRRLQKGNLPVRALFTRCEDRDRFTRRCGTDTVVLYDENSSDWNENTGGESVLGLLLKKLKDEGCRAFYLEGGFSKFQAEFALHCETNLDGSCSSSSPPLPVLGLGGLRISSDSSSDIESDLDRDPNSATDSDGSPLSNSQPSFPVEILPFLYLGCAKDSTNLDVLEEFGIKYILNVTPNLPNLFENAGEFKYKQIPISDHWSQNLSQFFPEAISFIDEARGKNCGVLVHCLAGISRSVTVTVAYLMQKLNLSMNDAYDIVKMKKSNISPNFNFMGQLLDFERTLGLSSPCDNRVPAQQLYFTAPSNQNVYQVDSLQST
Usually IC50 stands for the point on the concentration scale where inhibition reaches its midpoint. Consider `O=C1c2cccnc2C(Nc2ccc(S(=O)(=O)N3CCCCCC3)cc2)N1Cc1ccccc1` (configuration not stated), for which the IC50 is > 50 µM (inactive).

Turning to `CCSCCOC(=O)C1=C(C)NC2=C(C(=O)CCC2)C1c1coc2ccccc2c1=O` (configuration not stated), the IC50 is > 50 µM (inactive).

`Oc1ccc2ccccc2c1C=NC12CN3CCN(CN(C3)C1)C2`: the IC50 is > 50 µM (inactive).

In the case of `N#C/C(=C(/O)CSc1nnc(Cc2cccs2)n1C1CCCCC1)c1nc2ccccc2[nH]1`, the IC50 is > 50 µM (inactive).

On to `COC(=O)C1=C(C)NC2=C(C(=O)c3ccccc32)C1c1ccc(-c2ccc(C(=O)O)cc2)o1` (configuration not stated), for which the IC50 was > 50 µM (inactive).

`O=C1C(C2=C(O)c3ccccc3C2=O)=Nc2ccccc21`: the IC50 was 18.3 µM.

As to `CCOC(=O)c1ccc(NC2c3ncccc3C(=O)N2Cc2ccc(F)cc2)cc1` (configuration not stated), the IC50 is > 50 µM (inactive).
